Assay results: US6838472B2, “Substituted urea retinoid agonists” (Syntex (U.S.A.) LLC, priority 2001, dated 2005)
“And” between values parts separate entries of the source, which are not always exact repeats. Equal values may be shown once.

melting point | SMILES
169 to 172 °C | CCN(C(=O)N(CC)c1ccc2c(c1)C(C)(C)CCC2(C)C)c1ccc(C(=O)O)cc1 [Compound 73, 4-[1,3-diethyl-3-(5,5,8,8-tetramethyl-5,6,7,8-tetrahydro-naphthalen-2-yl)-ureido]-benzoic acid]
175 to 179.5 °C | CCCCCN(C(=O)Nc1ccc(C(=O)O)cn1)c1ccc2c(c1)C(C)(C)CCC2(C)C [Compound 49, 6-[3-pentyl-3-(5,5,8,8-tetramethyl-5,6,7,8-tetrahydro-naphthalen-2-yl) -ureido]-nicotinic acid]
158 to 162 °C | CC1(C)CCC(C)(C)c2cc(N(CCCCOCc3ccccc3)C(=O)Nc3ccc(C(=O)O)cc3)ccc21 [Compound 41, 4-[3-(4-benzyloxy-butyl)-3-(5,5,8,8-tetramethyl-5,6,7,8-tetrahydro-naphthalen-2-yl)-ureido]-benzoic acid]
167 to 170 °C and 167.1 to 170.1 °C | CC1(C)CCC(C)(C)c2cc(N(Cc3cccs3)C(=O)Nc3ccc(C(=O)O)cc3)ccc21 [Compound 31, 4-[3-(5,5,8,8-tetramethyl-5,6,7,8-tetrahydro-naphthalen-2yl)-3-thiophen-2-ylmethyl-ureido]-benzoic acid]
188 to 193 °C and 188.2 to 193 °C | Cc1cc(CN(C(=O)Nc2ccc(C(=O)O)cc2)c2ccc3c(c2)C(C)(C)CCC3(C)C)no1 [Compound 57, 4-[3-(5-methyl-isoxazol-3-ylmethyl)-3-(5,5,8,8-tetramethyl-5,6,7,8-tetrahydro-naphthalen-2-yl)-ureido]-benzoic acid]
117 to 121 °C and 116.8 to 120.8 °C | COc1ccc(CN(C(=O)Nc2ccc(C(=O)O)cc2)c2ccc3c(c2)C(C)(C)CCC3(C)C)cc1 [Compound 23, 4-[3-(4-methoxybenzyl)-3-(5,5,8,8-tetramethyl-5,6,7,8-tetrahydro-naphthalen-2-yl)-ureido]-benzoic acid]
143 to 146 °C and 143.1 to 145.9 °C | CC1(C)CCC(C)(C)c2cc(N(Cc3ccc(F)cc3)C(=O)Nc3ccc(C(=O)O)cc3)ccc21 [Compound 19, 4-[3-(4-fluorobenzyl)-3-(5,5,8,8-tetramethyl-5,6,7,8-tetrahydro-naphthalen-2-yl)-ureido]-benzoic acid]
201 to 202 °C | CCCCCN(C(=O)Nc1ccc2c(c1)C(C)(C)CCC2(C)C)c1ccc(C(=O)O)cc1 [Compound 42, 4-[1-pentyl-3-(5,5,8,8-tetramethyl-5,6,7,8-tetrahydro-naphthalen-2-yl)-ureido]-benzoic acid]
124 to 125 °C | CC1(C)CCC(C)(C)c2cc(N(CCCCO)C(=O)Nc3ccc(C(=O)O)cc3)ccc21 [Compound 71, 4-[3-(4-hydroxy-butyl)-3-(5,5,8,8-tetramethyl-5,6,7,8-tetrahydro-naphthalen-2-yl)-ureido]-benzoic acid]
82 to 85 °C | CCOCCN(C(=O)Nc1ccc(C(=O)O)cc1)c1ccc2c(c1)C(C)(C)CCC2(C)C [Compound 33, 4-[3-(2-ethoxy-ethyl)-3-(5,5,8,8-tetramethyl-5,6,7,8-tetrahydro-naphthalen-2-yl)-ureido]-benzoic acid]
126 to 133.1 °C and 126 to 133 °C | CC1(C)CCC(C)(C)c2cc(N(Cc3ccc(Cl)cc3)C(=O)Nc3ccc(C(=O)O)cc3)ccc21 [Compound 21, 4-[3-(4-chlorobenzyl)-3-(5,5,8,8-tetramethyl-5,6,7,8-tetrahydro-naphthalen-2-yl)-ureido]-benzoic acid]
223 to 225 °C and 223 to 224.9 °C | CC1(C)CCC(C)(C)c2cc(N(CCc3ccccc3)C(=O)Nc3ccc(C(=O)O)cc3)ccc21 [Compound 5, 4-[3-phenethyl-3-(5,5,8,8-tetramethyl-5,6,7,8-tetrahydro-naphthalen-2-yl)-ureido]-benzoic acid]
